{"source": "paper PMC9562281", "test": "On-resin ring-closing metathesis (C=C) of bis-alkenyl beta-(1,6)-hexaglucosides, Grubbs catalyst 20 mol% per cycle, Ar bubbling. Method B (8a-8d): Grubbs II, MW 60 C, 40 min per cycle, 6 cycles for 8a and 3 for 8b-8d. Method A (8e-8g): Grubbs I, 25 C, 60 min per cycle, 3 cycles", "settings": "the molecule shown is the open-chain precursor, 16 steps"}
{"smiles": "C=CCO[C@@H]1[C@@H](OC(=O)c2ccccc2)[C@H](OC[C@H]2O[C@@H](OC[C@H]3O[C@@H](OC[C@H]4O[C@@H](OC[C@H]5O[C@@H](OC[C@H]6O[C@@H](OCCCCCN(Cc7ccc(OC)cc7[N+](=O)[O-])C(=O)OCc7ccccc7)[C@H](OC(=O)c7ccccc7)[C@@H](OC(=O)c7ccccc7)[C@@H]6OCc6ccccc6)[C@H](OC(=O)c6ccccc6)[C@@H](OCc6ccccc6)[C@@H]5OCC=C)[C@H](OC(=O)c5ccccc5)[C@@H](OC(=O)c5ccccc5)[C@@H]4OCc4ccccc4)[C@H](OC(=O)c4ccccc4)[C@@H](OC(=O)c4ccccc4)[C@@H]3OCc3ccccc3)[C@H](OC(=O)c3ccccc3)[C@@H](OC(=O)c3ccccc3)[C@@H]2OCc2ccccc2)O[C@H](CO)[C@H]1OCc1ccccc1", "note": "[8a (from 5a, -(CH2)4-)]", "values": [{"measurement": "ring closure, overall yield", "setting": "28-membered ring, 1,2-dichloroethane, 4.0 h", "result": 12, "unit": "%"}]}
{"smiles": "C=CCCO[C@@H]1[C@@H](OC(=O)c2ccccc2)[C@H](OC[C@H]2O[C@@H](OC[C@H]3O[C@@H](OC[C@H]4O[C@@H](OC[C@H]5O[C@@H](OC[C@H]6O[C@@H](OCCCCCN(Cc7ccc(OC)cc7[N+](=O)[O-])C(=O)OCc7ccccc7)[C@H](OC(=O)c7ccccc7)[C@@H](OC(=O)c7ccccc7)[C@@H]6OCc6ccccc6)[C@H](OC(=O)c6ccccc6)[C@@H](OCc6ccccc6)[C@@H]5OCC=C)[C@H](OC(=O)c5ccccc5)[C@@H](OC(=O)c5ccccc5)[C@@H]4OCc4ccccc4)[C@H](OC(=O)c4ccccc4)[C@@H](OC(=O)c4ccccc4)[C@@H]3OCc3ccccc3)[C@H](OC(=O)c3ccccc3)[C@@H](OC(=O)c3ccccc3)[C@@H]2OCc2ccccc2)O[C@H](CO)[C@H]1OCc1ccccc1", "note": "[8b (from 5b, -(CH2)5-)]", "values": [{"measurement": "ring closure, overall yield", "setting": "29-membered ring, 1,2-dichloroethane, 2.0 h", "result": 10, "unit": "%"}]}
{"smiles": "C=CCCCO[C@@H]1[C@@H](OC(=O)c2ccccc2)[C@H](OC[C@H]2O[C@@H](OC[C@H]3O[C@@H](OC[C@H]4O[C@@H](OC[C@H]5O[C@@H](OC[C@H]6O[C@@H](OCCCCCN(Cc7ccc(OC)cc7[N+](=O)[O-])C(=O)OCc7ccccc7)[C@H](OC(=O)c7ccccc7)[C@@H](OC(=O)c7ccccc7)[C@@H]6OCc6ccccc6)[C@H](OC(=O)c6ccccc6)[C@@H](OCc6ccccc6)[C@@H]5OCC=C)[C@H](OC(=O)c5ccccc5)[C@@H](OC(=O)c5ccccc5)[C@@H]4OCc4ccccc4)[C@H](OC(=O)c4ccccc4)[C@@H](OC(=O)c4ccccc4)[C@@H]3OCc3ccccc3)[C@H](OC(=O)c3ccccc3)[C@@H](OC(=O)c3ccccc3)[C@@H]2OCc2ccccc2)O[C@H](CO)[C@H]1OCc1ccccc1", "note": "[8c (from 5c, -(CH2)6-)]", "values": [{"measurement": "ring closure, overall yield", "setting": "30-membered ring, 1,2-dichloroethane, 2.0 h", "result": 15, "unit": "%"}]}
{"smiles": "C=CCCCCO[C@@H]1[C@@H](OC(=O)c2ccccc2)[C@H](OC[C@H]2O[C@@H](OC[C@H]3O[C@@H](OC[C@H]4O[C@@H](OC[C@H]5O[C@@H](OC[C@H]6O[C@@H](OCCCCCN(Cc7ccc(OC)cc7[N+](=O)[O-])C(=O)OCc7ccccc7)[C@H](OC(=O)c7ccccc7)[C@@H](OC(=O)c7ccccc7)[C@@H]6OCc6ccccc6)[C@H](OC(=O)c6ccccc6)[C@@H](OCc6ccccc6)[C@@H]5OCC=C)[C@H](OC(=O)c5ccccc5)[C@@H](OC(=O)c5ccccc5)[C@@H]4OCc4ccccc4)[C@H](OC(=O)c4ccccc4)[C@@H](OC(=O)c4ccccc4)[C@@H]3OCc3ccccc3)[C@H](OC(=O)c3ccccc3)[C@@H](OC(=O)c3ccccc3)[C@@H]2OCc2ccccc2)O[C@H](CO)[C@H]1OCc1ccccc1", "note": "[8d (from 5d, -(CH2)7-)]", "values": [{"measurement": "ring closure, overall yield", "setting": "31-membered ring, 1,2-dichloroethane, 2.0 h", "result": 13, "unit": "%"}]}
{"smiles": "C=CCCCCO[C@H]1[C@H](OCc2ccccc2)[C@@H](OC(=O)c2ccccc2)[C@H](OC[C@H]2O[C@@H](OCCCCCN(Cc3ccc(OC)cc3[N+](=O)[O-])C(=O)OCc3ccccc3)[C@H](OC(=O)c3ccccc3)[C@@H](OC(=O)c3ccccc3)[C@@H]2OCc2ccccc2)O[C@@H]1CO[C@@H]1O[C@H](CO[C@@H]2O[C@H](CO[C@@H]3O[C@H](CO[C@@H]4O[C@H](CO)[C@@H](OCc5ccccc5)[C@H](OCCC=C)[C@H]4OC(=O)c4ccccc4)[C@@H](OCc4ccccc4)[C@H](OC(=O)c4ccccc4)[C@H]3OC(=O)c3ccccc3)[C@@H](OCc3ccccc3)[C@H](OC(=O)c3ccccc3)[C@H]2OC(=O)c2ccccc2)[C@@H](OCc2ccccc2)[C@H](OC(=O)c2ccccc2)[C@H]1OC(=O)c1ccccc1", "note": "[8e (from 5e, -(CH2)8-)]", "values": [{"measurement": "ring closure, overall yield", "setting": "32-membered ring, 1,2-dichloroethane, 3.0 h", "result": 15, "unit": "%"}]}
{"smiles": "C=CCCCCO[C@H]1[C@H](OCc2ccccc2)[C@@H](OC(=O)c2ccccc2)[C@H](OC[C@H]2O[C@@H](OCCCCCN(Cc3ccc(OC)cc3[N+](=O)[O-])C(=O)OCc3ccccc3)[C@H](OC(=O)c3ccccc3)[C@@H](OC(=O)c3ccccc3)[C@@H]2OCc2ccccc2)O[C@@H]1CO[C@@H]1O[C@H](CO[C@@H]2O[C@H](CO[C@@H]3O[C@H](CO[C@@H]4O[C@H](CO)[C@@H](OCc5ccccc5)[C@H](OCCCC=C)[C@H]4OC(=O)c4ccccc4)[C@@H](OCc4ccccc4)[C@H](OC(=O)c4ccccc4)[C@H]3OC(=O)c3ccccc3)[C@@H](OCc3ccccc3)[C@H](OC(=O)c3ccccc3)[C@H]2OC(=O)c2ccccc2)[C@@H](OCc2ccccc2)[C@H](OC(=O)c2ccccc2)[C@H]1OC(=O)c1ccccc1", "note": "[8f (from 5f, -(CH2)9-)]", "values": [{"measurement": "ring closure, overall yield", "setting": "33-membered ring, 1,2-dichloroethane, 3.0 h", "result": 14, "unit": "%"}]}
{"smiles": "C=CCCCCO[C@@H]1[C@@H](OC(=O)c2ccccc2)[C@H](OC[C@H]2O[C@@H](OC[C@H]3O[C@@H](OC[C@H]4O[C@@H](OC[C@H]5O[C@@H](OC[C@H]6O[C@@H](OCCCCCN(Cc7ccc(OC)cc7[N+](=O)[O-])C(=O)OCc7ccccc7)[C@H](OC(=O)c7ccccc7)[C@@H](OC(=O)c7ccccc7)[C@@H]6OCc6ccccc6)[C@H](OC(=O)c6ccccc6)[C@@H](OCc6ccccc6)[C@@H]5OCCCCC=C)[C@H](OC(=O)c5ccccc5)[C@@H](OC(=O)c5ccccc5)[C@@H]4OCc4ccccc4)[C@H](OC(=O)c4ccccc4)[C@@H](OC(=O)c4ccccc4)[C@@H]3OCc3ccccc3)[C@H](OC(=O)c3ccccc3)[C@@H](OC(=O)c3ccccc3)[C@@H]2OCc2ccccc2)O[C@H](CO)[C@H]1OCc1ccccc1", "note": "[8g (from 5g, -(CH2)10-)]", "values": [{"measurement": "ring closure, overall yield", "setting": "34-membered ring, 1,2-dichloroethane, 3.0 h", "result": 17, "unit": "%"}]}
